Data as given in a melting point compilation (Tetko et al.; mined from patent text by program, amines drawn as free bases though some values may be those of a salt).

SMILES	melting point [°C]
Clc1ccc(CCC(Cn2ccnc2)Sc2c(Cl)cc(Cl)cc2Cl)cc1 (stereo not drawn)	132
Oc1cccc(C(O)CCCCCOc2cccc(Cl)c2)c1 (stereo not drawn)	125 to 127
COc1cc(O)c(C(=O)C=Cc2ccc(C)cc2)c(OC)c1	130
CCNC(=O)Nc1nc2cc(-c3cccnc3)cc(-c3ccc(C)cn3)c2s1	231
NCc1c(NC2CCCCC2)cccc1-c1ccccc1	95 to 96
CCOc1cc2ncc(C#N)c(Nc3ccc4c(c3)C(=O)NC4=O)c2cc1OCC	248 to 251
Clc1ccc(-c2c(-c3ccccc3)nn3ccccc23)nn1	206
NC(=O)C1C=Cc2ccccc2N1C(=O)c1ccccc1 (stereo not drawn)	169 to 171
CCn1c(=O)c(-c2c(Cl)cccc2Cl)cc2cnc(Nc3ccc(OC)cc3)nc21	213 to 215
O=C1NC(=O)C(c2cccc3ccccc23)O1 (stereo not drawn)	188 to 189
Cc1cc(-c2ncn(Cc3ccc(F)cc3)n2)sc1C(=O)NCc1ccccc1	128 to 130
CN(C)CCNS(=O)(=O)c1cccc(NC(=O)c2cnn3c(C(F)F)cc(-c4ccc(C(F)(F)F)cc4)nc23)c1	184
CSc1ncc2c(n1)N(Cc1ccc(F)c(F)c1)c1ccccc1-n1nnnc1-2	281 to 283
CC(=O)COc1ccc(/C=C/C(=O)O)c(Oc2ncc(C(F)(F)F)cc2Cl)c1	179 to 180
CC(C)CCOc1c(-c2ccc(S(N)(=O)=O)cc2)cnn(CC(F)(F)F)c1=O	123 to 124
O=C(Nc1ccc(C(F)(F)F)cc1)NC1CCN(S(=O)(=O)c2cccc(C(F)(F)F)c2)CC1	246 to 251
CC(=O)Nc1cccc(-c2ccc3nncn3n2)c1	248 to 250
CCOC(=O)Cc1cnc(C(C)(C)C)nc1O	98 to 102
CC(=O)OCCN1CCSc2ccc(Nc3ncc(Cl)c(N[C@@H]4CCCC[C@H]4NS(C)(=O)=O)n3)cc2C1	85 to 90
Cc1nc2cc(Cl)ccc2c(=O)n1C	162 to 165
CC(=O)c1cccc(S(=O)(=O)C[N+](=O)[O-])c1	99 to 100
CCC(C)c1cc(C=O)cc(C(C)CC)c1O (stereo not drawn)	65 to 68
CC(C)(C)c1ccc(C(=O)Nc2cn3cc(-c4ccncc4)ccc3n2)cc1	293 to 294
Nc1nc(NC2Cc3ccccc3N(C(=O)c3ccccc3)C2)c2cn[nH]c2n1 (stereo not drawn)	155 to 164
COc1ccc(Oc2ccccc2NS(C)(=O)=O)cc1	81 to 83

SMILES	melting point [°C]
CCOCc1cc2ccccc2oc1=Nc1ccc(CC)cc1	104 to 105
O=C(c1ccccc1)c1cnn2c1NCCC2	173 to 174
O=c1c2c(Cl)cc(Cl)cc2n(Cc2ccccc2)c(=O)n1Cc1ccc(Cl)cc1	161 to 165
CCCCCCC(O)CCCCCCCCCCC(=O)NCCNCCO (stereo not drawn)	102
CCOC(=O)c1ccc(N2CCN(Cc3cc(C)c4c(c3)NC(=O)C(C)O4)CC2)nc1 (stereo not drawn)	206
Cc1csc2ncc(C(O)CCc3ccccc3)n12 (stereo not drawn)	144 to 145
COC(=O)[C@H](C)N(C(=O)[C@H](CC(C)C)NC(=O)OCc1ccccc1)c1ccc(-c2ccccc2)cc1	126 to 127
Cc1ccc(S(=O)(=O)OCCCc2c[nH]c3ccc(F)cc23)cc1	74
Cc1n[nH]c(-c2ccc(Br)cc2)c1NC(=O)c1cccnc1	262 to 264
CC(C)Oc1ccc2c(O)c(C(=O)O)nc(Cl)c2c1	139 to 141
COC(=O)COc1cccc2c(CCS(=O)(=O)CCc3ccccc3)c(C)oc12	91 to 92
COC(=O)COc1ccc(C(=O)NC(=O)Nc2ccc(C(N)=S)cc2)cc1	215 to 218
Cc1cnc2c(NC(=O)c3c(Cl)cccc3Cl)ccc(C)c2c1-n1ccnc1	214 to 216
Cc1ccc(S(=O)(=O)ON=C(CCN2C(=O)c3ccccc3C2=O)n2nc(C(C)(C)C)cc2N)cc1	80 to 82
CCC(C)Nc1ccc2n[nH]c(=O)n2n1 (stereo not drawn)	214 to 216
CCCCCCOc1c(C=Cc2ccc(Br)cc2)ccc2c(OCCCCCC)c(C=Cc3ccc(Br)cc3)ccc12	170 to 172
Clc1cccc(NNc2cccc(Cl)c2)c1	116
COc1cc2ncnc(N3CCC(C(C)=O)CC3)c2cc1OC	116 to 117
COc1cc2ncnc(NC3=CC(=O)C(N(C)C)=CC3=O)c2cc1OC	245 to 250
O=C(O)c1ccc(C(=O)N2Cc3ccccc3Cc3ccccc32)cc1	220 to 225
COc1cc2c(cc1OC)CN(CCCCNC(=O)c1cc(C)ccc1OCCOCCF)CC2	89.2 to 89.5
CCOC(=O)C1=C[C@@H](OC(CC)CC)[C@H](NC(C)=O)[C@H](O)C1	129 to 131
O=C(O)CCCCCNC(=O)C(CS)Cc1ccccc1 (stereo not drawn)	58 to 60
CCCCCc1ccc(-c2c(C(C)C)cc(-c3ccccc3)c(CO)c2C(C)C)nc1	56 to 58
COc1ccc2c(C(F)(F)F)cc(=O)[nH]c2c1NC(C)=O	280

SMILES	melting point [°C]
COc1cccc2c(=O)c(C=O)coc12	174 to 176
CNc1nc(N)nc2cc(-c3ccccc3S(=O)(=O)NC)ccc12	316 to 317
N#Cc1ccc2cc(OCCC(c3ccccc3)(c3ccccc3)c3ccccc3)ccc2c1	207 to 208
CCOC(=O)c1ncn2c1CN=C(c1ccccc1F)c1cc(Cl)ccc1-2	195 to 196
CCOC(=O)c1c2ccc(Cl)cc2c(-c2ccccc2)n1CCNC(=O)OCc1ccccc1	102 to 104
COc1ccc(C2=NCc3nncn3-c3ccc(Cl)cc32)cc1	216 to 217
COc1ccc(N(CCCC(=O)O)C(=O)CCN(C(=O)c2ccc(Cl)cc2)c2ccc(OC)cc2)cc1	91 to 93
O=C(Nc1ccccc1C(=O)N1CCCCC1)N[C@@H](Cc1ccc(NC(=O)c2c(Cl)cccc2Cl)cc1)C(=O)O	191
O=C(O)c1nc2c(=O)[nH]c3cc(C(F)(F)F)ccc3n2c1CBr	> 250
CCCCc1c(C(=O)OCC)[nH]c2c(Br)cccc2c1=O	88
O=S(=O)(NCCCN1CCOCC1)C(F)(F)F	95 to 97
CSc1c(C=O)c(=O)n(C)c(=O)n1C	104
CS(=O)(=O)c1ccc(-c2nc(C(F)(F)F)[nH]c2-c2ccc(F)c(F)c2)cc1	249 to 252
CSCOc1ccc2c(c1)CCC1C2CCC2(C)C(=O)CCC12 (stereo not drawn)	65
O=C(O)Cc1ccc(O)c(Cl)c1Cl	105 to 106
CC1(C)CC(=O)C2=C(C1)NC1=C(C(=O)CC(C)(C)C1)C2c1cccc(Oc2ccc(Cl)cc2)c1	238 to 239
CNC(=S)NN=C(CCCCl)c1ccccc1	94 to 96
COc1cc(C(C)=O)c(OC)cc1Cl	96
COC(=O)CCC(=O)c1cc(C(=O)N(C)C)cs1	98 to 100
C=CCCOc1ccc(C(=O)Oc2ccc3ccc(=O)oc3c2)cc1	108 to 109
C=CCCCCCCCCNC(=O)N[C@H]1CCCNC(=O)C1	98 to 99
CNC(=O)Nc1ccc2c(c1)OC(C)(CCl)O2 (stereo not drawn)	156
COc1ccc(-c2cc3ccccc3n2C(C)=O)cc1	68 to 71
